Data published in US8354569B2, “Plant acyltransferases specific for long-chained, multiply unsaturated fatty acids” (University of Bristol, priority 2003, dated 2013).

Tests used:
GPAT [1] = assay: GPAT acyl-CoA substrate specificity, Mortierella microsomal membranes; assay type: biochemical, Mortierella alpina; conditions: Mortierella GPAT; 0.5 mM acyl-CoA, 5 mM [14C] G3P, 5 minutes
Method: (§1) Mortierella cultures were harvested after 5 days and placed on ice. All further procedures were carried out at 4° C. The mycelium was suspended in 0.1 M sodium phosphate buffer (pH 7.2), comprising 0.33 M sucrose, 0.1% BSA (free from fatty acids), 1000 units of catalase/ml and 1 mM Pefabloc. The following steps were carried out as described under “preparations of microsomal membranes from cotyledons of maturing seeds of sunflower and linseed”.
(§2) The specificity of the GPAT was studied to verify whether the enzyme has a preference for certain acyl-CoAs, in particular to determine whether the GPAT from oil seed plants converts LCPUFA-CoAs. Microsomal membranes were incubated with 0.5 mM (Mortierella) or 0.2 mM (sunflower and linseed) of one of the following acyl-CoAs: myristoyl-CoA (14:0-CoA), palmitoyl-CoA (16:0-CoA), palmitoleoyl-CoA (16:1-CoA), stearoyl-CoA (18:0-CoA), oleoyl-CoA (18:1-CoA), linoleoyl-CoA (18:2-CoA), dihomo-gamma-linolenoyl-CoA (20:3-CoA) or arachidonyl-CoA (20:4-CoA) and 5 mM [^14C] G3P. Microsomal membranes (equivalent to 50 μg of protein in the case of sunflower and Mortierella and 150 μg of protein in the case of linseed) were added to the reaction mixture in order to start the reaction. After incubation for 5 minutes, the lipids were extracted by the method of Bligh & Dyer, and the radioactivity incorporated in complex lipids was determined.

LPCAT [2] = assay: LPCAT acyl-CoA substrate specificity, linseed microsomal membranes; assay type: biochemical; conditions: for Percentage incorporation in comparison with the incorporation of oleic acid: 20 nmol acyl-CoA, sn-1-palmitolysophosphatidylcholine, DTNB assay
Method: (§3) All the procedures were carried out at 4° C. The cotyledons of maturing sunflower seeds and linseed were harvested approximately 10 days after anthesis and suspended in 0.1 M sodium phosphate buffer (pH 7.2), comprising 0.33 M sucrose and 0.1% BSA (free from fatty acids). After comminution in a glass homogenizer, the homogenate was centrifuged for 30 minutes at 20 000×g. The supernatant was filtered through one layer of Miracloth and centrifuged for 90 minutes in an ultracentrifuge at 100 000×g. The pelleted microsomal membranes were washed with 0.1 M sodium phosphate buffer (pH 7.2) and resuspended in a small volume of buffer, using a glass homogenizer. The microsomal membrane preparations were either immediately processed or stored at −80° C.
(§4) LPCAT activity was determined in a continuous spectraphotometric assay in which 5,5-dithiobis-2-nitrobenzoate (DTNB) was used, and the change in absorption at 409 nm and 25° C. was monitored. The assay comprised sn-1-palmitolysophosphatidylcholine (30 nmol) as acyl acceptor, DTNB (50 nmol) and 20 nmol of one of the following acyl-CoAs: myristoyl-CoA (14:0-CoA), palmitoyl-CoA (16:0-CoA), palmitoleoyl-CoA (16:1-CoA), stearoyl-CoA (18:0-CoA), oleoyl-CoA (18:1-CoA), linoleoyl-CoA (18:2-CoA), dihomo-gamma-linolenyl-CoA (20:3-CoA) or arachidonyl-CoA (20:4-CoA) in 1 ml of 0.1 M phosphate buffer, pH 7.2. The reaction was started by addition of microsomal membrane preparation. The amount of microsomal membrane preparation added was 5 μg (Mortierella and sunflower) or 30 μg (linseed).

GPAT [3] = assay: GPAT acyl-CoA substrate specificity, sunflower microsomal membranes; assay type: biochemical; conditions: 0.2 mM acyl-CoA, 5 mM [14C] G3P, 5 minutes
Method: as §3, §2

LPCAT [4] = assay: LPCAT acyl-CoA substrate specificity, Mortierella microsomal membranes; assay type: biochemical, Mortierella alpina; conditions: Mortierella LPCAT; 20 nmol acyl-CoA, sn-1-palmitolysophosphatidylcholine, DTNB assay
Method: as §1, §4

LPAAT [5] = assay: LPAAT acyl-CoA substrate specificity, Mortierella microsomal membranes; assay type: biochemical, Mortierella alpina; conditions: Mortierella LPAAT; 20 nmol acyl-CoA, sn-1-oleoyl-lysophosphatidic acid, DTNB assay
Method: as §1
(§5) The specificity of the LPAAT was studied in order to verify whether the enzyme has a preference for certain acyl-CoAs, in particular to determine whether the LPAAT from oil seed plants converts LCPUFA-CoAs. […] The assay comprised sn-1-oleoyl-lysophosphatidic acid (30 nmol), DTNB (50 nmol) and 20 nmol of one of the following acyl-CoAs: palmitoyl-CoA (16:0-CoA), stearoyl-CoA (18:0-CoA), oleoyl-CoA (18:1-CoA), linoleoyl-CoA (18:2-CoA), dihomo-gamma-linolenyl-CoA (20:3-CoA) or arachidonyl-CoA (20:4-CoA) in 1 ml of 0.1 M phosphate buffer, pH 7.2. […] Microsomal membranes (equivalent to 10 μg of protein in the case of Mortierella and 40 μg of protein in the case of sunflower and linseed) were added to the reaction mixture in order to start the reaction.

GPAT [6] = assay: GPAT acyl-CoA substrate specificity, linseed microsomal membranes; assay type: biochemical; conditions: 0.2 mM acyl-CoA, 5 mM [14C] G3P, 5 minutes
Method: as §3, §2

LPAAT [7] = assay: LPAAT acyl-CoA substrate specificity, linseed microsomal membranes; assay type: biochemical; conditions: 20 nmol acyl-CoA, sn-1-oleoyl-lysophosphatidic acid, DTNB assay
Method: as §3, §5

LPCAT [8] = assay: LPCAT acyl-CoA substrate specificity, sunflower microsomal membranes; assay type: biochemical; conditions: 20 nmol acyl-CoA, sn-1-palmitolysophosphatidylcholine, DTNB assay
Method: as §3, §4

LPAAT [9] = assay: LPAAT acyl-CoA substrate specificity, sunflower microsomal membranes; assay type: biochemical; conditions: 20 nmol acyl-CoA, sn-1-oleoyl-lysophosphatidic acid, DTNB assay
Method: as §3, §5

| Structure (SMILES) | Percentage incorporation in comparison with the incorporation of oleic acid (GPAT [1]) [%] | LPCAT activity (in words) (LPCAT [2]) | Percentage incorporation in comparison with the incorporation of oleic acid (LPCAT [2]) [%] | Percentage incorporation in comparison with the incorporation of oleic acid (GPAT [3]) [%] | Percentage incorporation in comparison with the incorporation of oleic acid (LPCAT [4]) [%] | Percentage incorporation in comparison with the incorporation of oleic acid (LPAAT [5]) [%] | Percentage incorporation in comparison with the incorporation of oleic acid (GPAT [6]) [%] | Percentage incorporation in comparison with the incorporation of oleic acid (LPAAT [7]) [%] | Percentage incorporation in comparison with the incorporation of oleic acid (LPCAT [8]) [%] | Percentage incorporation in comparison with the incorporation of oleic acid (LPAAT [9]) [%] |
| --- | --- | --- | --- | --- | --- | --- | --- | --- | --- | --- |
| CCCCC/C=C\C/C=C\C/C=C\CCCCCCC(=O)SCCNC(=O)CCNC(=O)[C@H](O)C(C)(C)COP(=O)(O)OP(=O)(O)OC[C@H]1O[C@@H](n2cnc3c(N)ncnc32)[C@H](O)[C@@H]1OP(=O)(O)O [20:3-CoA, dihomo-gamma-linolenoyl-CoA] | 80 | no LPCAT activity was detected | 0 | 55 | 85 | 65 | – | – | – | – |
| CCCCC/C=C\C/C=C\C/C=C\C/C=C\CCCC(=O)SCCNC(=O)CCNC(=O)[C@H](O)C(C)(C)COP(=O)(O)OP(=O)(O)OC[C@H]1O[C@@H](n2cnc3c(N)ncnc32)[C@H](O)[C@@H]1OP(=O)(O)O [Arachidonoyl-CoA, arachidonyl-CoA] | 75 | no LPCAT activity was detected | 0 | 23 | 90 | 65 | 5 | 19 | 4 | 18 |
| CCCCC/C=C\C/C=C\CCCCCCCC(=O)SCCNC(=O)CCNC(=O)[C@H](O)C(C)(C)COP(=O)(O)OP(=O)(O)OC[C@H]1O[C@@H](n2cnc3c(N)ncnc32)[C@H](O)[C@@H]1OP(=O)(O)O [Linoleoyl-CoA, linoleoyl-CoA] | 90 | converted equally efficiently | 100 | 85 | 40 | 90 | 90 | 120 | 120 | 250 |
| CCCCCCCCCCCCCC(=O)SCCNC(=O)CCNC(=O)[C@H](O)C(C)(C)COP(=O)(O)OP(=O)(O)OC[C@H]1O[C@@H](n2cnc3c(N)ncnc32)[C@H](O)[C@@H]1OP(=O)(O)O [Myristoyl-CoA, myristoyl-CoA] | – | – | 0 | 57 | 0 | 55 | 100 | 30 | 1 | 16 |
| CCCCCC/C=C\CCCCCCCC(=O)SCCNC(=O)CCNC(=O)[C@H](O)C(C)(C)COP(=O)(O)OP(=O)(O)OC[C@H]1O[C@@H](n2cnc3c(N)ncnc32)[C@H](O)[C@@H]1OP(=O)(O)O [Palmitololeoyl-CoA, palmitoleoyl-CoA] | – | – | 180 | – | 60 | 70 | – | 140 | 90 | 140 |
